Laboratory results: US7998965B2, “Glutamate aggrecanase inhibitors” (Wyeth LLC, priority 2005, dated 2011)

Assays:
[1] = target: T1, purified recombinant human Aggrecanase-2 (Ag2t-Phe628-Strep) (Homo sapiens, UniProt Q9UNA0); assay: In vitro fluorescence screen for Aggrecanase-2 inhibitors; assay type: biochemical; settings: Table 1; read-out: Agg 2 IC50
T1 construct: the form used is denoted as Ag2t-Phe628-Strep (MW=41,737)
T1 sequence (Q9UNA0 262-628): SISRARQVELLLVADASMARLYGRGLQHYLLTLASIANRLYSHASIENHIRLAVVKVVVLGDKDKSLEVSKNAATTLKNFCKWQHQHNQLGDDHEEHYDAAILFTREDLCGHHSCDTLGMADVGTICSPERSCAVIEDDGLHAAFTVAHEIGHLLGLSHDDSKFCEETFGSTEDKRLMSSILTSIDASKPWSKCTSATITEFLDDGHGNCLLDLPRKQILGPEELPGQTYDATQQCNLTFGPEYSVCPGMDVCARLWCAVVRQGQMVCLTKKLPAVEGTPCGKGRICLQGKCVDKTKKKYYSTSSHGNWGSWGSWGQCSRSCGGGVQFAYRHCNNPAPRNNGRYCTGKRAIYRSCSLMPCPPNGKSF

[2] = target: T2, recombinant human catalytic domain of MMP-14 (Homo sapiens, UniProt P50281); assay: In vitro fluorescence assay of MMP-14 activity; assay type: biochemical; settings: Table 1; unit inferred
T2 construct: 177 amino acids corresponding to Tyr89-Gly265 of mature human enzyme; purchased Chemicon International, Inc. CC1041

recombinant human MMP-2 = target: T3, recombinant human MMP-2 (Homo sapiens, UniProt P08253); assay: In vitro fluorescence assay of MMP-2 activity
T3 sequence (P08253 110-660): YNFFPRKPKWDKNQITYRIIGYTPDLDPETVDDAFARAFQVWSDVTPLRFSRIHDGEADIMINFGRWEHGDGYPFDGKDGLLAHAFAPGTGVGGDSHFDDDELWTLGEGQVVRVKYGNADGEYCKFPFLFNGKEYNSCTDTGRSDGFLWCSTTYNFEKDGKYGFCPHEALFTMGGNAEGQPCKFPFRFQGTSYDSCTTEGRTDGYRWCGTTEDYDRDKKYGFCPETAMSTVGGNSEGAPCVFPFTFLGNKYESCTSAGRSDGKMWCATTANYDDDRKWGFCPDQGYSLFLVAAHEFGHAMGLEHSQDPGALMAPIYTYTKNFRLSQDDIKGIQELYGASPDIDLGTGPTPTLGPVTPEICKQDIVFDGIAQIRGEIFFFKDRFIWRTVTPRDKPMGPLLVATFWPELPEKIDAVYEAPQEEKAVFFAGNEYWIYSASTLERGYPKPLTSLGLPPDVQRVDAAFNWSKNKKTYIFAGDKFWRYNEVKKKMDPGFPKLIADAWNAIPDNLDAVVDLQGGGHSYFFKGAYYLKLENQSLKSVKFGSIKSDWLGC

MMP-1 = target: T4, MMP-1 (Homo sapiens, UniProt P03956); assay: MMP-1 of Table 1; assay type: biochemical; settings: for IC50: unit inferred; for MMP-1: unit not given
T4 sequence (P03956 100-469): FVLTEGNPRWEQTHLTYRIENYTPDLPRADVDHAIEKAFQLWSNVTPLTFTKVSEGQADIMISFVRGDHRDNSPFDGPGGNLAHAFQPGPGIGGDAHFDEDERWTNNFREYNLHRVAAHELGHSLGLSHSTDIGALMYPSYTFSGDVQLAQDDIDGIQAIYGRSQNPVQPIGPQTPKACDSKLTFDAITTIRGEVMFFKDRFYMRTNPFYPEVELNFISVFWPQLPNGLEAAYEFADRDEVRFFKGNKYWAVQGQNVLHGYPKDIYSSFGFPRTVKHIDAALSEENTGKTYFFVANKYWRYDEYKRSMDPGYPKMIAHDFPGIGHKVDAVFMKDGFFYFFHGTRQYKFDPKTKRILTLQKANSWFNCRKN

[3] = target: T5, recombinant human catalytic domain of MMP-13 (Homo sapiens, UniProt P45452); assay: In vitro fluorescence assay of MMP-13 activity; assay type: biochemical; settings: Table 1; for IC50: unit inferred
T5 construct: catalytic domain of MMP-13 (165 amino acids, residues 104-268, 19 kDa)

[4] = tested on: bovine articular cartilage treated with Interleukin 1 alpha (IL-1α); assay: Bovine articular cartilage explant cultures: inhibition of degradation of proteoglycan; assay type: cell-based; settings: inhibitory effect expressed as percentage, concentration not printed
Procedure, shortened: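 Bovine metacarpal cartilage discs (6 mm), equilibrated in serum-free DMEM-based medium, were treated with 5 ng/ml IL-1 plus compound (working solutions 0.1-10 μg/ml), with medium collected and replaced on days 1, 2 and 3. Released proteoglycan was measured by DMMB absorbance at 520 nm against chondroitin sulphate standards, expressed as μg per mg cartilage, and inhibition given as percentage.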

[5] = target: T6, purified recombinant human Aggrecanase-1 (rAgg1) (Homo sapiens, UniProt O75173); assay: In vitro fluorescence screen for Aggrecanase-1 inhibitors; assay type: biochemical; settings: Table 1; for Ki: enzyme not given, column follows Agg1 IC50, read-out: Ki; for IC50: read-out: Agg1 IC50
T6 sequence (O75173 213-837): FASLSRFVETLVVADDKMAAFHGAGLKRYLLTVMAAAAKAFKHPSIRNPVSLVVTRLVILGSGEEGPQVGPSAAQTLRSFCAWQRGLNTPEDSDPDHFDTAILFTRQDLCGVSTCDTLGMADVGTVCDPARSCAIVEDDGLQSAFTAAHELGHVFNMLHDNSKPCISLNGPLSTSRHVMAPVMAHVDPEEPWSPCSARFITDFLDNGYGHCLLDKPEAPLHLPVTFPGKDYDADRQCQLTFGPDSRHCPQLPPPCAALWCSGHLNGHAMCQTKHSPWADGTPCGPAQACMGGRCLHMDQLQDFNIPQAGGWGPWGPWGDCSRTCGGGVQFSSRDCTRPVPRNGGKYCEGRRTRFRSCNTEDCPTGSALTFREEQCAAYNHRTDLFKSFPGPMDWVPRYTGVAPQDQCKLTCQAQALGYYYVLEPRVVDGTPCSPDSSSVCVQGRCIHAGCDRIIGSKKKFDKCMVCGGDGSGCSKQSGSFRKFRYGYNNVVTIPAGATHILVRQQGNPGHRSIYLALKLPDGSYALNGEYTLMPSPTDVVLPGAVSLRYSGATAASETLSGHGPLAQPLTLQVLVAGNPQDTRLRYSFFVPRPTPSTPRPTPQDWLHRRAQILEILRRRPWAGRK

[6] = Table 1, first of two columns headed bovine
[7] = Table 1, second of two columns headed bovine

For O=C(O)CC[C@H](NC(=O)c1ccc(-c2ccccc2)cc1)C(=O)NCc1cccc(I)c1 [Example 8JJ, N^2-(1,1′-biphenyl-4-ylcarbonyl)-N^1-(3-iodobenzyl)-L-α-glutamine], the IC50 [1] was 1.1 µM, the IC50 [2] was over 200 µM and the IC50 (recombinant human MMP-2) was 27 µM. It also gave an IC50 (MMP-1) of over 200 µM, an IC50 [3] of 17 µM and a bovine [4, 6] of 70%. It also gave a bovine [4, 7] of 17%, a Ki [5] of 0.033 µM and an IC50 [5] of 0.045 µM.
CCCCCCCNC(=O)[C@H](CCC(=O)O)NC(=O)c1ccc(-c2ccccc2)cc1 [Example 8JJJ, N^2-(1,1′-biphenyl-4-ylcarbonyl)-N^1-heptyl-L-α-glutamine] gave an IC50 [1] of 0.3 µM, an IC50 [2] of over 200 µM and an IC50 (recombinant human MMP-2) of over 20 µM. The IC50 (MMP-1) was over 200 µM, the IC50 [3] was 30 µM and the bovine [4, 6] was 74%. The bovine [4, 7] was 26%, the Ki [5] was 0.054 µM and the IC50 [5] was 0.054 µM.
Compound COc1ccc(CCNC(=O)[C@H](CCC(=O)O)NC(=O)c2ccc(-c3ccccc3)cc2)cc1OC [Example 8L, N^2-(1,1′-biphenyl-4-ylcarbonyl)-N^1-[2-(3,4-dimethoxyphenyl)ethyl]-L-α-glutamine] has an IC50 [1] of 0.189 µM, an IC50 [2] of 21.5 µM and an IC50 (recombinant human MMP-2) of 10.5 µM. It also gave an IC50 (MMP-1) of over 100 µM, an IC50 [3] of about 50 µM and a bovine [4, 6] of 87%. It also gave a bovine [4, 7] of 79% and an IC50 [5] of 0.055 µM.
For COc1ccc(CCNC(=O)[C@H](CCC(=O)O)NC(=O)c2ccc(-c3ccccc3)cc2)cc1 [Example 8M, N^2-(1,1′-biphenyl-4-ylcarbonyl)-N^1-[2-(4-methoxyphenyl)ethyl]-L-α-glutamine], the IC50 [1] was 0.856 µM, the IC50 [2] was 13 µM and the IC50 (recombinant human MMP-2) was 8 µM. It also gave an IC50 (MMP-1) of over 100 µM, an IC50 [3] of about 50 µM and a bovine [4, 6] of 85%. The bovine [4, 7] was 17% and the IC50 [5] was 0.12 µM.
O=C(O)CC[C@H](NC(=O)c1ccc(-c2ccccc2)cc1)C(=O)NCc1ccc(F)c(C(F)(F)F)c1 [Example 8NNN, N^2-(1,1′-biphenyl-4-ylcarbonyl)-N^1-[4-fluoro-3-(trifluoromethyl)benzyl]-L-α-glutamine] showed an IC50 [1] of 1.75 µM, an IC50 [2] of over 50 µM and an IC50 (recombinant human MMP-2) of over 10 µM. It also gave an IC50 (MMP-1) of over 50 µM, an IC50 [3] of 14 µM and a bovine [4, 6] of 60%. For the same compound, the bovine [4, 7] was 0%, the Ki [5] was 0.219 µM and the IC50 [5] was 0.1 µM.
Compound Cc1cccc(CNC(=O)[C@H](CCC(=O)O)NC(=O)c2ccc(-c3ccccc3)cc2)c1 [Example 8O, N^2-(1,1′-biphenyl-4-ylcarbonyl)-N^1-(3-methylbenzyl)-L-α-glutamine] has an IC50 [1] of 1.3 µM, an IC50 [2] of about 22 µM and an IC50 (recombinant human MMP-2) of 5 µM. For the same compound, the MMP-1 (MMP-1) was “no inh”, the IC50 [3] was 31.4 µM and the bovine [4, 6] was 69%. It also gave a bovine [4, 7] of 34%, a Ki [5] of 0.082 µM and an IC50 [5] of 0.075 µM.
With COc1cccc(CNC(=O)[C@H](CCC(=O)O)NC(=O)c2ccc(-c3ccccc3)cc2)c1 [Example 8Q, N^2-(1,1′-biphenyl-4-ylcarbonyl)-N^1-(3-methoxybenzyl)-L-α-glutamine] the IC50 [1] was 0.4 µM, the IC50 [2] was about 22 µM and the IC50 (recombinant human MMP-2) was 6.1 µM. For the same compound, the MMP-1 (MMP-1) was “no inh”, the IC50 [3] was 37.3 µM and the bovine [4, 6] was 66%. It also gave a bovine [4, 7] of 24%, a Ki [5] of 0.031 µM and an IC50 [5] of 0.011 µM.
COc1cc(CNC(=O)[C@H](CCC(=O)O)NC(=O)c2ccc(-c3ccccc3)cc2)cc(OC)c1OC [Example 8R, N^2-(1,1′-biphenyl-4-ylcarbonyl)-N^1-(3,4,5-trimethoxybenzyl)-L-α-glutamine] gave an IC50 [1] of 0.05 µM, an IC50 [2] of about 22 µM and an IC50 (recombinant human MMP-2) of 10.4 µM. The MMP-1 (MMP-1) was “no inh”, the IC50 [3] was 42.4 µM and the bovine [4, 6] was 86%. The bovine [4, 7] was 78%, the Ki [5] was 0.005 µM and the IC50 [5] was 0.016 µM.
Work on O=C(O)CC[C@H](NC(=O)c1ccc(-c2ccccc2)cc1)C(=O)NCc1ccc(Cl)cc1Cl [Example 8S, N^2-(1,1′-biphenyl-4-ylcarbonyl)-N^1-(2,4-dichlorobenzyl)-L-α-glutamine] yielded an IC50 [1] of 1.3 µM, an IC50 [2] of about 25 µM and an IC50 (recombinant human MMP-2) of 3.13 µM. For the same compound, the MMP-1 (MMP-1) was “no inh”, the IC50 [3] was over 200 µM and the bovine [4, 6] was 51%. The bovine [4, 7] was 40%, the Ki [5] was 0.245 µM and the IC50 [5] was 0.15 µM.
CSc1ccc(CNC(=O)[C@H](CCC(=O)O)NC(=O)c2ccc(-c3ccccc3)cc2)cc1 [Example 8V, N^2-(1,1′-biphenyl-4-ylcarbonyl)-N^1-[4-(methylthio)benzyl]-L-α-glutamine] gave an IC50 [1] of 1.1 µM, an IC50 [2] of about 30 µM and an IC50 (recombinant human MMP-2) of 3.43 µM. For the same compound, the IC50 (MMP-1) was over 100 µM, the IC50 [3] was about 67 µM and the bovine [4, 6] was 73%. It also gave a bovine [4, 7] of 45% and an IC50 [5] of 0.16 µM.
Compound CN(C)c1ccc(CNC(=O)[C@H](CCC(=O)O)NC(=O)c2ccc(-c3ccccc3)cc2)cc1 [Example 8ZZZ, N^2-(biphenyl-4-ylcarbonyl)-N^1-[4-(dimethylamino)benzyl]-L-α-glutamine] has an IC50 [1] of 1.6 µM, an IC50 [2] of over 200 µM and an IC50 (recombinant human MMP-2) of 13 µM. The IC50 (MMP-1) was over 50 µM, the MMP-13 ([3]; unit not given) was “no inh” and the bovine [4, 6] was 72%. For the same compound, the bovine [4, 7] was 34% and the IC50 [5] was 0.1 µM.
In the case of C=Cc1cccc(CNC(=O)[C@H](CCC(=O)O)NC(=O)c2ccc(-c3ccccc3)cc2)c1 [Example 10M, N^2-(1,1′-biphenyl-4-ylcarbonyl)-N^1-(3-vinylbenzyl)-L-α-glutamine], the IC50 [1] is reported as 1.1 µM, the IC50 [2] is reported as over 200 µM and the IC50 (recombinant human MMP-2) is reported as over 20 µM. The IC50 (MMP-1) was over 50 µM, the IC50 [3] was about 20 µM and the bovine [4, 6] was 67%. For the same compound, the bovine [4, 7] was 35%, the Ki [5] was 0.054 µM and the IC50 [5] was 0.043 µM.
Compound O=C(O)CC[C@H](NC(=O)c1ccc(-c2ccccc2)cc1)C(=O)NCc1cccc(-c2cccs2)c1 [Example 10N, N^2-(1,1′-biphenyl-4-ylcarbonyl)-N^1-(3-thien-2-ylbenzyl)-L-α-glutamine] has an IC50 [1] of 0.97 µM, an IC50 [2] of over 200 µM and an IC50 (recombinant human MMP-2) of 7.6 µM. For the same compound, the IC50 (MMP-1) was over 200 µM, the IC50 [3] was over 50 µM and the bovine [4, 6] was 65%. The bovine [4, 7] was 24%, the Ki [5] was 0.028 µM and the IC50 [5] was 0.019 µM.
